# Source: ChEMBL document CHEMBL1201862, “PubChem BioAssay data set” (2004)
# Active and inactive are the calls of the source.
# Experiments:
# ORF 73 = ORF 73 (Human herpesvirus 8, UniProt O40947); experiment: inhibitors of C-LANA binding to LBS DNA, dose response, biochemical, fluorescence polarization, cherry-picked samples (AID 504725); design: species or system Human gammaherpesvirus 8;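 further: fluorescence polarization of a labeled DNA duplex reporting LANA DNA binding; potency is for inhibitors that block LANA binding to the DNA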
# [1] = biological target: DNA (cytosine-5)-methyltransferase 1 (Homo sapiens, UniProt P26358); experiment: DNMT1 methyltransferase inhibitors, confirmation, biochemical, fluorescent molecular beacon (AID 602386); format: functional
# [2] = biological target: Induced myeloid leukemia cell differentiation protein Mcl-1 (Homo sapiens, UniProt Q07820); experiment: MCL1-BIM BH3 interaction inhibitors, dose response, biochemical, fluorescence polarization, BIM-BH3 peptide, 1536-well (AID 2217)
# [3] = biological target: T1, Small ubiquitin-related modifier 1 (Homo sapiens, UniProt P63165); experiment: inhibitors of SUMO1 partner interactions, dose response, biochemical, FRET (AID 624383); format: functional; settings: read-out: IC50_Mean
# Bcl-2-like protein 1 = Bcl-2-like protein 1 (Homo sapiens, UniProt Q07817); experiment: BCL-XL inhibitors, dose response, selectivity assay for MCL1 inhibitor project, biochemical, fluorescence polarization, 1536-well (AID 2218)
# [4] = biological target: T1, Small ubiquitin-related modifier 1; experiment: inhibitors of SUMO1 peptide binding, dose response, biochemical, fluorescence polarization, uHTS hits (AID 624382); format: functional; settings: read-out: IC50_Mean
# HeLa = experiment: HeLa cell cytotoxicity, dose response, cytotoxicity control, 24 h, cherry-picked samples (AID 504726); format: functional, cell-based; settings: Homo sapiens;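 further: potency for cytotoxicity as loss of luminescence signal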
# [5] = biological target: T2, Zinc finger protein mex-5 (Caenorhabditis elegans, UniProt Q9XUB2); experiment: MEX-5/TCR-2 RNA interaction inhibitors, dose response, biochemical, C. elegans, fluorescence polarization (AID 1960)
# T2 sequence (Q9XUB2 whole entry): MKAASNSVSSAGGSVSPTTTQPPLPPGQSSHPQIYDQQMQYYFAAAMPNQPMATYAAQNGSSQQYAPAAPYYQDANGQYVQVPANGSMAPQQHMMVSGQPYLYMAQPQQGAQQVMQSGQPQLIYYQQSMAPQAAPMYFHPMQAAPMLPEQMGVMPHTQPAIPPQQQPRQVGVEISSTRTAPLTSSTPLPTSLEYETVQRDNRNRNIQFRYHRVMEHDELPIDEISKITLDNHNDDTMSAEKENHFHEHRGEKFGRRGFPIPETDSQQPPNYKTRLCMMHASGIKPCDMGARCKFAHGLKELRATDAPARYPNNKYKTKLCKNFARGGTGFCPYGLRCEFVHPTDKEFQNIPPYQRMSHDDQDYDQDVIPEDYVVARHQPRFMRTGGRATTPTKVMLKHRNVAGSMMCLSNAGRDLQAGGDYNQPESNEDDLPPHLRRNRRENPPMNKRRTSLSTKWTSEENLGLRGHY
# [6] = biological target: T3, RNA-binding protein pos-1 (Caenorhabditis elegans, UniProt G5EF15); experiment: inhibitors of POS-1/mex-3 RNA binding, dose response, biochemical, fluorescence polarization (AID 1964);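 further: purified POS-1 fused to maltose binding protein made in E. coli; potency of compounds blocking POS-1 binding to fluorescent RNA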
# T3 sequence (G5EF15 whole entry): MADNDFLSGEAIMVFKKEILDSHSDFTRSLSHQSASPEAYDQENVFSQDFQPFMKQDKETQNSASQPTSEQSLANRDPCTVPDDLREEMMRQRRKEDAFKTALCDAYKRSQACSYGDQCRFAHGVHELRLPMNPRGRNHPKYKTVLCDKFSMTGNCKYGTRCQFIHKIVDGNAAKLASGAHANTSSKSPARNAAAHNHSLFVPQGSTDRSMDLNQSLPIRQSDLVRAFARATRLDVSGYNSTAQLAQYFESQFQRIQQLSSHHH
# [7] = biological target: Beta-adrenergic receptor kinase 1 (Homo sapiens, UniProt P25098); experiment: aptamer displacement from bead-bound GRK2 – biochemical, cherry pick 1, bead flow cytometry, dose response (AID 504500)
# Beta-adrenergic receptor kinase 1, sequence (P25098 whole entry): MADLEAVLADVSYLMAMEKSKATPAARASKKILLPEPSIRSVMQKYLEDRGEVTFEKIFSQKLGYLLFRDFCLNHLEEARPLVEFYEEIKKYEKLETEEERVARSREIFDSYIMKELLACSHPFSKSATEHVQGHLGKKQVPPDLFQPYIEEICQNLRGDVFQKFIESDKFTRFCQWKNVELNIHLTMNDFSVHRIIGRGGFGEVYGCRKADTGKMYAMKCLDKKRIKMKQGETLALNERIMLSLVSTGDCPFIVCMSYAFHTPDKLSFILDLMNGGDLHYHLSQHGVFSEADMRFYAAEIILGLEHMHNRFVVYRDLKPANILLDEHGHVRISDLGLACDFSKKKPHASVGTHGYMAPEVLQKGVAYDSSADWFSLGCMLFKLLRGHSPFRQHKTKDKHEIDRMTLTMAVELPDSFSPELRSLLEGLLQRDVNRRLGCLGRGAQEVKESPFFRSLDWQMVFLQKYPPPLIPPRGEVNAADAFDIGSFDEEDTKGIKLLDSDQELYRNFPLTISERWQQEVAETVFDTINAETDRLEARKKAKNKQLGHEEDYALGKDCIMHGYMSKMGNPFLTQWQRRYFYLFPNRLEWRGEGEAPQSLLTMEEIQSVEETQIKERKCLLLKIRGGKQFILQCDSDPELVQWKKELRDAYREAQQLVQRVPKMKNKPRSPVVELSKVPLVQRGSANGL
# T1 sequence (P63165 whole entry): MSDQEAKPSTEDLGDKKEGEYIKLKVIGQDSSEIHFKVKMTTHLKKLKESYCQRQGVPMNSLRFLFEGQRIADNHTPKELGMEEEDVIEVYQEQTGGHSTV
# DNA (cytosine-5)-methyltransferase 1, sequence (P26358 whole entry): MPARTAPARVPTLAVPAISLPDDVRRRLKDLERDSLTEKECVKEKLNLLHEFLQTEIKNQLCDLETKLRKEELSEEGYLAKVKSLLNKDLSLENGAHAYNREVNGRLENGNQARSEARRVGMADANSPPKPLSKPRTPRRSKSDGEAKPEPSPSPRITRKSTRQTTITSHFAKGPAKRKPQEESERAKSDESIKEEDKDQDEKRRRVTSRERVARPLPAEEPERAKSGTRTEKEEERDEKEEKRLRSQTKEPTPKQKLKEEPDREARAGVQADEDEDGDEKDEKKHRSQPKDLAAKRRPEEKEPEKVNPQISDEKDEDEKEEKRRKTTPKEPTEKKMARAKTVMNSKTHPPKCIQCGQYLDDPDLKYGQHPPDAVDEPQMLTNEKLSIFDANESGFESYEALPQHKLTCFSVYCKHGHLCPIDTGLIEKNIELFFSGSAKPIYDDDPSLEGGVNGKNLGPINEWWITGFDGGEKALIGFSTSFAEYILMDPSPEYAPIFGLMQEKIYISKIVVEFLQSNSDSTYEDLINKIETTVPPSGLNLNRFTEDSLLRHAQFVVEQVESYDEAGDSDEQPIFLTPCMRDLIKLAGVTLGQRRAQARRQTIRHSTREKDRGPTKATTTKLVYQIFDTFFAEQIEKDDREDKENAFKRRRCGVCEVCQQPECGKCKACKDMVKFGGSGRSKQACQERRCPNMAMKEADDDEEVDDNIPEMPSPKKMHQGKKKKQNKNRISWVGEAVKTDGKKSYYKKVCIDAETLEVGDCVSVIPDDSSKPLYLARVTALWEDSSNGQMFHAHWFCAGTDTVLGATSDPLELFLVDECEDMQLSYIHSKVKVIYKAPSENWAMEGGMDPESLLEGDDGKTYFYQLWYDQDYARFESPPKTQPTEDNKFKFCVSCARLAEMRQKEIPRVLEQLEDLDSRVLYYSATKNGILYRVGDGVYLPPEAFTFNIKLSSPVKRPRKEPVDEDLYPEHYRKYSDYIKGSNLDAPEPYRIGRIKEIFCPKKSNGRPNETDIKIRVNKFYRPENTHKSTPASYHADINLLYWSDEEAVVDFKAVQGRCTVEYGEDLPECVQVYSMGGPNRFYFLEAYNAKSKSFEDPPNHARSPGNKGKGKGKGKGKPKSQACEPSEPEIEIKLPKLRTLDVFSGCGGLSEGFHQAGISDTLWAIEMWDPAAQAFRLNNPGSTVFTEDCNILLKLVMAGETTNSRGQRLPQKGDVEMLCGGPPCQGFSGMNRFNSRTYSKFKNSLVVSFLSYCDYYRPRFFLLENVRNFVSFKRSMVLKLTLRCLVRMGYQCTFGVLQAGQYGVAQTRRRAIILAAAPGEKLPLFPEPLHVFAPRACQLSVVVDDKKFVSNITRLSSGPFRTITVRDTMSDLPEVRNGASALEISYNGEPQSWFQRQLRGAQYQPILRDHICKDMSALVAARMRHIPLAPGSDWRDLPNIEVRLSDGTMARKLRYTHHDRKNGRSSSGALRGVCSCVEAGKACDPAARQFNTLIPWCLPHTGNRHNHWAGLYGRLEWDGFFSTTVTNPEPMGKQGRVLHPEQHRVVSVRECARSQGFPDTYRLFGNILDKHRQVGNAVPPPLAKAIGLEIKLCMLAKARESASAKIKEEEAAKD
# ORF 73, sequence (O40947 whole entry): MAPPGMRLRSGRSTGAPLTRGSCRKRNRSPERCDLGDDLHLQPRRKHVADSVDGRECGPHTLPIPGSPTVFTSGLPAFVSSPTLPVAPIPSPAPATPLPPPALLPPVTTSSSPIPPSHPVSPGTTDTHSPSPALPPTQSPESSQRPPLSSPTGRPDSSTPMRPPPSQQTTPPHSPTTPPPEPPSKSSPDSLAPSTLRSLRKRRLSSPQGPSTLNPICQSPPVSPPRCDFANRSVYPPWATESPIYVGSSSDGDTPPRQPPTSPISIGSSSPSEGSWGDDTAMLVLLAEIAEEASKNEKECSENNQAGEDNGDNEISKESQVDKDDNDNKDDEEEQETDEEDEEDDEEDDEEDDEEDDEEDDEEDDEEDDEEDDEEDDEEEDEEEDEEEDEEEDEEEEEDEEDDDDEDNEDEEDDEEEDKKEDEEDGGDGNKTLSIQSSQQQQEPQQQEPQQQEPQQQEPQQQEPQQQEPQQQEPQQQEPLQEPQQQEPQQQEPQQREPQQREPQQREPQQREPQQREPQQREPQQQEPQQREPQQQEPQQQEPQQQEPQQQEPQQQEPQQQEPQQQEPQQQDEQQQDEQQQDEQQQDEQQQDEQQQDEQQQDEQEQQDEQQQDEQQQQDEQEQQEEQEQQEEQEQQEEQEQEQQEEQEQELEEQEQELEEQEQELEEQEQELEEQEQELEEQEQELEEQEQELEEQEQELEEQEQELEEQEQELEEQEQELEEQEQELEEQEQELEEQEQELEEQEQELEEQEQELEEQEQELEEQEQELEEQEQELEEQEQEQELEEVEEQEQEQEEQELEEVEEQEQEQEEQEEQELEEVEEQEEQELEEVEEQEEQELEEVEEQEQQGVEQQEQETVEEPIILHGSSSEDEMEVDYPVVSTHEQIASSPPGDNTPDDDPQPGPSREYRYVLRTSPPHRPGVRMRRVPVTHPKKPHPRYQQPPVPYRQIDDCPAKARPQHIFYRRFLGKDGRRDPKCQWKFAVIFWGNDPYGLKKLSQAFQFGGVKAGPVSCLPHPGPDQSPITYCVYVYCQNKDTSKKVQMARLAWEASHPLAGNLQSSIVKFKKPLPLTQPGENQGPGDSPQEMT
# Induced myeloid leukemia cell differentiation protein Mcl-1, sequence (Q07820 whole entry): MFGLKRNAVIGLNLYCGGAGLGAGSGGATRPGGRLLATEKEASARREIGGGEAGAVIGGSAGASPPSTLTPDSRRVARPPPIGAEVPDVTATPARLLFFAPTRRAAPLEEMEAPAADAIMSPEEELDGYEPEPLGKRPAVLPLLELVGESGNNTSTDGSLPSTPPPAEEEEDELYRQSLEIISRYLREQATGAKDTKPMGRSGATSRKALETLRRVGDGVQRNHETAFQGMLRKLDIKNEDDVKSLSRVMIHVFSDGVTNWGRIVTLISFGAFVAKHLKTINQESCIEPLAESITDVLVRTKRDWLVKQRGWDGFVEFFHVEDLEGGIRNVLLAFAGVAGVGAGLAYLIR
# Bcl-2-like protein 1, sequence (Q07817 whole entry): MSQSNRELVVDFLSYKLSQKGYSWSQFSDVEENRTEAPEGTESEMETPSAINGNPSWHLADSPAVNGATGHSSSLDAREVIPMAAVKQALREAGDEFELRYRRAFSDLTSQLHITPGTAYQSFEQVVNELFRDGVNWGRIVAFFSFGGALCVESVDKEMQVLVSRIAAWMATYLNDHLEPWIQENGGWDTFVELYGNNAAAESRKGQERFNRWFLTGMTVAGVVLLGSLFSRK
compound,measurement,setting,value
O=C(O)c1ccc(-n2cccc2/C=C2/SC(=O)N(CC(=O)N3CCCC3)C2=O)cc1,AC50,ORF 73,30.3 µM (active)
same,IC50,[1],3.5 µM (active)
same,IC50,[2],15.9 µM (not active)
same,IC50,[3],6.13 µM (active)
same,IC50,Bcl-2-like protein 1,104 µM (not active)
same,IC50,[4],> 66.6 µM (inactive)
same,AC50,HeLa,44.7 µM (active)
same,EC50,[5],78.2 µM (active)
same,EC50,[6],89 µM (active)
same,EC50,[7],33 µM (inactive)
